Test results as given in patent US7491794B2, “Macrocyclic compounds as inhibitors of viral replication” (Intermune, Inc., priority 2003, dated 2009).

How the values were obtained:
[1] = test system: HCV sub-genomic replicon, GS4.3; experiment: Quantitation by ELISA of NPTII in the HCV sub-genomic replicon, GS4.3, Section B; assay type: cell-based; details: Hepatitis C virus; GS4.3 cells, 72 h incubation; read-out: Replicon EC50
Outline: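 NPTII marker protein in lysates was quantified by ELISA read at 450 nm after 72 h inhibitor exposure (3-fold series, final DMSO 1%, G418-free medium) of HuH-7 cells stably harbouring the subgenomic HCV replicon. Values relative to DMSO-treated controls; 4-parameter curves gave EC50.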

NS3-NS4A protease = target: T1, NS3-NS4A protease (Hepatitis C virus genotype 1a, UniProt P27958); experiment: NS3-NS4A protease assay (NS3 inhibition assay, RETS1 substrate), Section B; assay type: biochemical; details: read-out: NS3-NS4A IC50
T1 construct: Recombinant E. coli or Baculovirus full-length NS3 was diluted to 3.33 μM with assay buffer; made in house; host or cells: E. coli or baculovirus (BV) system
Outline: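 Kinetic fluorescence read (335 nm excitation, 495 nm emission, 30 min) of RETS1 cleavage by NS3/NS4A-2 complex, 2 nM E. coli or 3 nM baculovirus NS3, after 10 min room-temperature compound pre-incubation. Four-parameter-fit IC50s converted to Ki by Cheng–Prusoff, Ki=IC50/(1+[S]/Km).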

T1 sequence (P27958 1027-1657): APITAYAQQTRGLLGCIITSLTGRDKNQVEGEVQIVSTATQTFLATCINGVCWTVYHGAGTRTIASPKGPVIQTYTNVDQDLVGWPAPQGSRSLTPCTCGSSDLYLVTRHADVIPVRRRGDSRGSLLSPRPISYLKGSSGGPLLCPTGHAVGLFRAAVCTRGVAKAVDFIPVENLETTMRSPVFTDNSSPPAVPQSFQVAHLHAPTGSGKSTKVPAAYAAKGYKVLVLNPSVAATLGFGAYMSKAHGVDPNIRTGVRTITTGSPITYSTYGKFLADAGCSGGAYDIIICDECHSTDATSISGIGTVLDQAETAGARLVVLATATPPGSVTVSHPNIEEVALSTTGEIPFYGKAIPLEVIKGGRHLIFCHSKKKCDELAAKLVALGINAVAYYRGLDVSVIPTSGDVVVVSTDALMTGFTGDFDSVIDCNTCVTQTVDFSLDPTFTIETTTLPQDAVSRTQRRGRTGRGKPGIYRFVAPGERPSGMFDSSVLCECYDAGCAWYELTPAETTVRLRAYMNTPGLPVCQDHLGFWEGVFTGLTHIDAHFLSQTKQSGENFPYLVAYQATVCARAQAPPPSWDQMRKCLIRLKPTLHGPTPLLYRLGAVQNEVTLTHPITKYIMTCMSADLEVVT

Compound | EC50 [1] [µM] | IC50 (NS3-NS4A protease) [µM]
CC(C)NCCOc1ccc2c(c1)CN(C(=O)O[C@@H]1C[C@H]3C(=O)N[C@]4(C(=O)NS(=O)(=O)C5CC5)C[C@H]4/C=C\CCCCC[C@H](NC(=O)OC(C)(C)C)C(=O)N3C1)C2 [AR00345094, (1S,4R,6S,14S,18R)-5-(2-Isopropylamino-ethoxy)-1,3-dihydro-isoindole-2-carboxylic acid 14-tert-butoxycarbonylamino-4-cyclopropanesulfonylaminocarbonyl-2,15-dioxo-3,16-diaza-tricyclo[14.3.0.0^4,6]nonadec-7-en-18-yl ester] | < 0.1 | < 0.1
CN(C)CCOc1ccc2c(c1)CN(C(=O)O[C@@H]1C[C@H]3C(=O)N[C@]4(C(=O)NS(=O)(=O)C5CC5)C[C@H]4/C=C\CCCCC[C@H](NC(=O)OC(C)(C)C)C(=O)N3C1)C2 [AR00345095, (1S,4R,6S,14S,18R)-5-(2-Dimethylamino-ethoxy)-1,3-dihydro-isoindole-2-carboxylic acid 14-tert-butoxycarbonylamino-4-cyclopropanesulfonylaminocarbonyl-2,15-dioxo-3,16-diaza-tricyclo[14.3.0.0^4,6]nonadec-7-en-18-yl ester] | < 0.1 | < 0.1
CC(C)(C)OC(=O)N[C@H]1CCCCC/C=C\[C@@H]2C[C@@]2(C(=O)NS(=O)(=O)C2CC2)NC(=O)[C@@H]2C[C@@H](OC(=O)N3Cc4ccc(OCCn5ccnc5)cc4C3)CN2C1=O [AR00345096, (1S,4R,6S,14S,18R)-5-(2-Imidazol-1-yl-ethoxy)-1,3-dihydro-isoindole-2-carboxylic acid 14-tert-butoxycarbonylamino-4-cyclopropanesulfonylaminocarbonyl-2,15-dioxo-3,16-diaza-tricyclo[14.3.0.0^4,6]nonadec-7-en-18-yl ester] | < 0.1 | < 0.1
Cn1c(C(=O)O)ccc1S(=O)(=O)NC(=O)[C@@]12C[C@H]1/C=C\CCCCC[C@H](NC(=O)OC(C)(C)C)C(=O)N1C[C@H](OC(=O)N3Cc4ccccc4C3)C[C@H]1C(=O)N2 [AR00364266, (1S,4R,6S,14S,18R)-1,3-Dihydro-isoindole-2-carboxylic acid 14-tert-butoxycarbonylamino-4-(5-carboxy-1-methyl-1H-pyrrole-2-sulfonylaminocarbonyl)-2,15-dioxo-3,16-diaza-tricyclo[14.3.0.0^4,6]nonadec-7-en-18-yl ester] | < 1 | < 0.1
CC(C)(C)OC(=O)N[C@H]1CCCCC/C=C\[C@@H]2C[C@@]2(C(=O)NS(=O)(=O)C2CC2)NC(=O)[C@@H]2C[C@@H](OC(=O)N3Cc4ccc(OCCn5cccn5)cc4C3)CN2C1=O [AR00364924, (1S,4R,6S,14S,18R)-5-(2-Pyrazol-1-yl-ethoxy)-1,3-dihydro-isoindole-2-carboxylic acid 14-tert-butoxycarbonylamino-4-cyclopropanesulfonylaminocarbonyl-2,15-dioxo-3,16-diaza-tricyclo[14.3.0.0^4,6]nonadec-7-en-18-yl ester] | < 0.1 | < 0.1
CC(C)(C)OC(=O)N[C@H]1CCCCC/C=C\[C@@H]2C[C@@]2(C(=O)NS(=O)(=O)C2CC2)NC(=O)[C@@H]2C[C@@H](OC(=O)N3Cc4ccc(O)cc4C3)CN2C1=O [AR00364936, (1S,4R,6S,14S,18R)-5-Hydroxy-1,3-dihydro-isoindole-2-carboxylic acid 14-tert-butoxycarbonylamino-4-cyclopropanesulfonylaminocarbonyl-2,15-dioxo-3,16-diaza-tricyclo[14.3.0.0^4,6]nonadec-7-en-18-yl ester] | < 1 | < 0.1
Cc1nc(-c2ccc3c(c2)CN(C(=O)O[C@@H]2C[C@H]4C(=O)N[C@]5(C(=O)NS(=O)(=O)C6CC6)C[C@H]5/C=C\CCCCC[C@H](NC(=O)OC(C)(C)C)C(=O)N4C2)C3)cs1 [AR00364989, (1S,4R,6S,14S,18R)-5-(2-Methyl-thiazol-4-yl)-1,3-dihydro-isoindole-2-carboxylic acid 14-tert-butoxycarbonylamino-4-cyclopropanesulfonylaminocarbonyl-2,15-dioxo-3,16-diaza-tricyclo[14.3.0.0^4,6]nonadec-7-en-18-yl ester] | < 0.1 | < 0.1
CC(C)Nc1nc(-c2ccc3c(c2)CN(C(=O)O[C@@H]2C[C@H]4C(=O)N[C@]5(C(=O)NS(=O)(=O)C6CC6)C[C@H]5/C=C\CCCCC[C@H](NC(=O)OC(C)(C)C)C(=O)N4C2)C3)cs1 [AR00365019, (1S,4R,6S,14S,18R)-5-(2-Isopropylamino-thiazol-4-yl)-1,3-dihydro-isoindole-2-carboxylic acid 14-tert-butoxycarbonylamino-4-cyclopropanesulfonylaminocarbonyl-2,15-dioxo-3,16-diaza-tricyclo[14.3.0.0^4,6]nonadec-7-en-18-yl ester] | < 0.1 | < 0.1
CC(C)(C)OC(=O)N[C@H]1CCCCC/C=C\[C@@H]2C[C@@]2(C(=O)NS(=O)(=O)C2CC2)NC(=O)[C@@H]2C[C@@H](OC(=O)N3Cc4ccc(C#N)cc4C3)CN2C1=O [AR00365082, (1S,4R,6S,14S,18R)-5-Cyano-1,3-dihydro-isoindole-2-carboxylic acid 14-tert-butoxycarbonylamino-4-cyclopropanesulfonylaminocarbonyl-2,15-dioxo-3,16-diaza-tricyclo[14.3.0.0^4,6]nonadec-7-en-18-yl ester] | < 1 | < 0.1
COC(=O)c1ccc2c(c1)CN(C(=O)O[C@@H]1C[C@H]3C(=O)N[C@]4(C(=O)NS(=O)(=O)C5CC5)C[C@H]4/C=C\CCCCC[C@H](NC(=O)OC(C)(C)C)C(=O)N3C1)C2 [AR00365083, (1S,4R,6S,14S,18R)-1,3-Dihydro-isoindole-2,5-dicarboxylic acid 2-(14-tert-butoxycarbonylamino-4-cyclopropanesulfonylaminocarbonyl-2,15-dioxo-3,16-diaza-tricyclo[14.3.0.0^4,6]nonadec-7-en-18-yl) ester 5-methyl ester] | < 0.1 | < 0.1
CC(C)(C)OC(=O)N[C@H]1CCCCC/C=C\[C@@H]2C[C@@]2(C(=O)NS(=O)(=O)C2CC2)NC(=O)[C@@H]2C[C@@H](OC(=O)N3Cc4ccc(C(=O)O)cc4C3)CN2C1=O [AR00365084, (1S,4R,6S,14S,18R)-1,3-Dihydro-isoindole-2,5-dicarboxylic acid 2-(14-tert-butoxycarbonylamino-4-cyclopropanesulfonylaminocarbonyl-2,15-dioxo-3,16-diaza-tricyclo[14.3.0.0^4,6]nonadec-7-en-18-yl) ester] | < 10 | < 0.1
COCC1c2cccc(F)c2CCN1C(=O)O[C@@H]1CC2C(=O)N[C@]3(C(=O)NS(=O)(=O)C4CC4)C[C@H]3/C=C\CCCCC[C@H](NC(=O)OC(C)(C)C)C(=O)N2C1 (stereo partly drawn) [AR00365193, (1S,4R,6S,14S,18R)-5-Fluoro-1-methoxymethyl-3,4-dihydro-1H-isoquinoline-2-carboxylic acid 14-tert-butoxycarbonylamino-4-cyclopropanesulfonylaminocarbonyl-2,15-dioxo-3,16-diaza-tricyclo[14.3.0.0^4,6]nonadec-7-en-18-yl ester] | < 0.1 | < 0.1
CCNC(=O)c1ccc2c(c1)CN(C(=O)O[C@@H]1C[C@H]3C(=O)N[C@]4(C(=O)NS(=O)(=O)C5CC5)C[C@H]4/C=C\CCCCC[C@H](NC(=O)OC(C)(C)C)C(=O)N3C1)C2 [AR00365252, (1S,4R,6S,14S,18R)-5-Ethylcarbamoyl-1,3-dihydro-isoindole-2-carboxylic acid 14-tert-butoxycarbonylamino-4-cyclopropanesulfonylaminocarbonyl-2,15-dioxo-3,16-diaza-tricyclo[14.3.0.0^4,6]nonadec-7-en-18-yl ester] | < 1 | < 0.1
COCC1c2cccc(F)c2CCN1C(=O)O[C@@H]1C[C@H]2C(=O)N[C@]3(C(=O)O)C[C@H]3/C=C\CCCCC[C@H](NC(=O)OC(C)(C)C)C(=O)N2C1 (stereo partly drawn) [AR00365349, (1S,4R,6S,14S,18R)-14-tert-Butoxycarbonylamino-18-(5-fluoro-1-methoxymethyl-3,4-dihydro-1H-isoquinoline-2-carbonyloxy)-2,15-dioxo-3,16-diaza-tricyclo[14.3.0.0^4,6]nonadec-7-ene-4-carboxylic acid] | < 1 | < 1
CC(C)(C)OC(=O)N[C@H]1CCCCC/C=C\[C@@H]2C[C@@]2(C(=O)O)NC(=O)[C@@H]2C[C@@H](OC(=O)N3Cc4cccc(F)c4C3)CN2C1=O [AR00365369, (1S,4R,6S,14S,18R)-14-tert-Butoxycarbonylamino-18-(4-fluoro-1,3-dihydro-isoindole-2-carbonyloxy)-2,15-dioxo-3,16-diaza-tricyclo[14.3.0.0^4,6]nonadec-7-ene-4-carboxylic acid] | < 1 | < 0.1
COCC1c2cccc(F)c2CCN1C(=O)O[C@@H]1CC2C(=O)N[C@]3(C(=O)O)C[C@H]3/C=C\CCCCC[C@H](NC(=O)OC3CCCC3)C(=O)N2C1 (stereo partly drawn) [AR00365381, (1S,4R,6S,14S,18R)-14-Cyclopentyloxycarbonylamino-18-(5-fluoro-1-methoxymethyl-3,4-dihydro-1H-isoquinoline-2-carbonyloxy)-2,15-dioxo-3,16-diaza-tricyclo[14.3.0.0^4,6]nonadec-7-ene-4-carboxylic acid] | < 1 | < 1
